Holding throughout (format): cell-based
For one assay, the target named is T1, erg3 (Rattus norvegicus, UniProt O54852).
T1 construct: expressed in transfected cells; host or cells: oocytes (Xenopus)
T1 sequence (O54852 1-1195): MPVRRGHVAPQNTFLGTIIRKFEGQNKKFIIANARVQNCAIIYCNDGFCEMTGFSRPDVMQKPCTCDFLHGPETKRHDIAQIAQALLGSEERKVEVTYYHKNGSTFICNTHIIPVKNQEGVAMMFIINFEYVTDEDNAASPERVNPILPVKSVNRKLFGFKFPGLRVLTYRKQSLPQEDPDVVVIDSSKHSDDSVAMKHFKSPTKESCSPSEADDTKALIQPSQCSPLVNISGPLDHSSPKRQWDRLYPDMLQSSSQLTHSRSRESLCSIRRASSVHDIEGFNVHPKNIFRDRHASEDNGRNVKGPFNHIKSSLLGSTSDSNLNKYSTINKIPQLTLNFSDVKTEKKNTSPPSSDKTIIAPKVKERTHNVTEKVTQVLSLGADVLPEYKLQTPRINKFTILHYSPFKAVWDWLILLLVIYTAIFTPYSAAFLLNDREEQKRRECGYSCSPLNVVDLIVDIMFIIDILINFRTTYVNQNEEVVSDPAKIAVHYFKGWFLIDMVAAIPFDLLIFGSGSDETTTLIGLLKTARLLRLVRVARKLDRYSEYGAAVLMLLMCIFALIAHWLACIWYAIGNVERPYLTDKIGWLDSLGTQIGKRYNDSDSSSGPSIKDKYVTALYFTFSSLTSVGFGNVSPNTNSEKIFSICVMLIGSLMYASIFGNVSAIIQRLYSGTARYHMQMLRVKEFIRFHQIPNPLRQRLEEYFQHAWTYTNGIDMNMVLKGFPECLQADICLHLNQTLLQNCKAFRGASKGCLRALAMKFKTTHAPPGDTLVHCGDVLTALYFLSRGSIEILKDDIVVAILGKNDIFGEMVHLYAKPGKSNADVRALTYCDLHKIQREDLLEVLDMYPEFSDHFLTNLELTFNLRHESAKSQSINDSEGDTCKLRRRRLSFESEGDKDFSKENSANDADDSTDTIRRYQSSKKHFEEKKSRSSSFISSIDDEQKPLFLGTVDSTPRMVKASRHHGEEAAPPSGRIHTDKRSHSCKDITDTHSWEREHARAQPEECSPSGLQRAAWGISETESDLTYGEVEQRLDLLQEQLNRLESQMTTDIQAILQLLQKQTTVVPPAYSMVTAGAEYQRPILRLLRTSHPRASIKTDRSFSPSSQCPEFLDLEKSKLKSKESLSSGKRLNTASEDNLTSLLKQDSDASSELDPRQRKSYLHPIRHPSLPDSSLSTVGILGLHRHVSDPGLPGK
Put plainly: Blockade of cloned erg3 channel in oocytes. The settings on record: mean±s.e.m.

Another assay addresses T2, Kv1.2 (Homo sapiens, UniProt P16389).
T2 construct: expressed in transfected cells; host or cells: oocytes (Xenopus)
The experiment in a line: Blockade of cloned Kv1.2 channel in oocytes. The settings on record: mean±s.e.m.

Another assay concerns the target T3, Kv4.3 (Homo sapiens, UniProt Q9UK17).
T3 construct: expressed in transfected cells; host or cells: oocytes (Xenopus)
T3 sequence (Q9UK17 1-655): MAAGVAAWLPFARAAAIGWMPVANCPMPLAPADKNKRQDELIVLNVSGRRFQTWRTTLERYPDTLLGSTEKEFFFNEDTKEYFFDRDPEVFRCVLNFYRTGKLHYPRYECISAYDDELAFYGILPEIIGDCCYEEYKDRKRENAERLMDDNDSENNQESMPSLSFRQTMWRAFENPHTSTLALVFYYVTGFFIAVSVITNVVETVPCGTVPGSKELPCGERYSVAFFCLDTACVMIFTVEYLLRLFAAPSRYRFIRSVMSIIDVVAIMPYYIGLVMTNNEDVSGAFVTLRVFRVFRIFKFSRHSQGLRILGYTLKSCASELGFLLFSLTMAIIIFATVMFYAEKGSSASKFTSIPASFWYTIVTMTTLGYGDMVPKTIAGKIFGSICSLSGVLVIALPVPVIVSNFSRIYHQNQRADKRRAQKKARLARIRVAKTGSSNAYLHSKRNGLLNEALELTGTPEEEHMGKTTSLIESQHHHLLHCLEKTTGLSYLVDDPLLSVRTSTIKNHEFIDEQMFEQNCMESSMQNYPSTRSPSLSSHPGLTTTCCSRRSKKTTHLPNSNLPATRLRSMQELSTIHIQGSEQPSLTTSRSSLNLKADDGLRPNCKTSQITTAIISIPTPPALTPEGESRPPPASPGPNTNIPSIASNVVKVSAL
The experiment in a line: Blockade of cloned Kv4.3 channel in oocytes. The settings on record: mean±s.e.m.

The next assay has as its target KCNQ2 (Homo sapiens, UniProt O43526, DEL417-446). Put plainly: Blockade of KCNQ2 channels expressed in Xenopus oocytes. As to conditions: oocytes; mean±s.e.m. Also noted: Full-length KCNQ2 cDNAs were amplified from adult human brain cDNA; expressed in transfected cells; host or cells: Xenopus oocytes injected with cRNA. As for the experimental part: Method: Full-length KCNQ2 cDNAs were amplified from adult human brain cDNA using the following primers ([…], […]) with the Expand Fidelity enzyme mixture (Boehringer Mannheim, Indianapolis). […] This region is also alternatively spliced in the KCNQ2 cDNA clone described by Biervert et al. (1998). Preparation, injection of cRNA and recording from oocytes was performed at room temperature as described previously (Dixon et al. 1996). The standard extracellular recording solution contained: 82 mM NaCl, 2 mM KCl, 1.8 mM CaCl2, 1 mM MgCl2, and 5 mM Na-HEPES (pH 7.6). Data collection and analysis were performed using pClamp software (Axon Instruments, Foster City, Calif.).
IC50 values are all expressed in μM, mean±s.e.m.

The structures appear in SMILES notation. A value given as a limit tells only on which side of the number the result lay.

T2 sequence (P16389 whole entry): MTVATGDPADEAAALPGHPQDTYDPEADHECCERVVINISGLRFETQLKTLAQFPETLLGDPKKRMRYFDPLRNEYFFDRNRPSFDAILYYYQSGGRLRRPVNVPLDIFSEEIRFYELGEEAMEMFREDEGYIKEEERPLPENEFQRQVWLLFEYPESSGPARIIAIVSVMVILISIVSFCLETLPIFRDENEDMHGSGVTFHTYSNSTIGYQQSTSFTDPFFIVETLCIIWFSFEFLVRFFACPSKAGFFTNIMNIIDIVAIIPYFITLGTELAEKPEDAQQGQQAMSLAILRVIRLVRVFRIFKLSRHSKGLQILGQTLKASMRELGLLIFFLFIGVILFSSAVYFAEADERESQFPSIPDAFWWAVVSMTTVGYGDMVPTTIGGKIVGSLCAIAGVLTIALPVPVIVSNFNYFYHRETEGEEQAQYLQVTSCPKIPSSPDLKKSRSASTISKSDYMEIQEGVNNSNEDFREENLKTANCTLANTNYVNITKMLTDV

For `O=C1N(c2ccccc2)c2ccccc2C1(Cc1ccncc1)Cc1ccncc1` [Linopirdine, 3,3-bis(4-pyridinylmethyl)-1-phenylindolin-2-one], the IC50 (in general, the concentration that gives 50% inhibition) at erg3 came out at 85 ± 5 µM; against Kv1.2 it was 68 ± 6 µM; against Kv4.3 it was 86 ± 14 µM; against KCNQ2, 4800 ± 600 nM.
The matching figures for `O=C1c2ccccc2C(Cc2ccncc2)(Cc2ccncc2)c2ccccc21` [XE991, 10,10-bis(4-pyridinylmethyl)-9(10H)-anthracenone]: greater than 100 µM, greater than 100 µM, 43 ± 7 µM and 710 ± 70 nM.

The record behind these values is US20040175691A1, “Use of the KCNQ2 and KCNQ3 genes for the discovery of agents useful in the treatment of neurological disorders” (priority 1998, published 2004).
